The text below walks through data of patent US20080279812A1, “Disease Prevention and Vaccination Prior to Thymic Reactivation” (Norwood Immunology, Ltd., priority 2003, published 2008).

Where a SMILES comes first, the peptide text is derived from it. [ ]: non-standard residue; d: D form. dPhe(4-Cl) = N[C@H](Cc1ccc(Cl)cc1)C(=O)O; d2Nal = N[C@H](Cc1ccc2ccccc2c1)C(=O)O; Lys(iPr) = CC(C)NCCCC[C@H](N)C(=O)O; NMeY = CN[C@@H](Cc1ccc(O)cc1)C(=O)O; d3Pal = N[C@H](Cc1cccnc1)C(=O)O

For one experiment, the system named is sex steroids. The conditions noted are these: single injection of sufficient dose; cited from earlier work.
Experiment [1] concerns thymus, spleen and lymph node cell numbers. Description: Chemical castration compared to surgical castration, T cell regeneration after cyclophosphamide. Format: in vivo. The conditions noted are these: mice. The source says:
FIG. 9: Changes in thymus (open bars), spleen (gray bars) and lymph node (black bars) cell numbers following treatment with cyclophosphamide, a chemotherapy agent, and surgical or chemical castration performed on the same day. Note the rapid expansion of the thymus in castrated animals when compared to the non-castrate (cyclophosphamide alone) group at 1 and 2 weeks post-treatment. In addition, spleen and lymph node numbers of the castrate group were well increased compared to the cyclophosphamide alone group. (n=34 per treatment group and time-point).
T cell Depletion Using Cyclophosphamide. Old mice (e.g., 2 years old) were injected with cyclophosphamide (200 mg/kg body wt over two days) and castrated.
FIG. 9 illustrates the use of chemical castration compared to surgical castration in enhancement of T cell regeneration. […] The enhancing effects were equivalent on thymic expansion and also the recovery of spleen and lymph node. The kinetics of chemical castration are slower than surgical, that is, mice take about 3 weeks longer to decrease their circulating sex steroid levels. However, chemical castration is still as effective as surgical castration and can be considered to have an equivalent effect.

The conditions of experiment [2]: cited from earlier work.

In the case of `CC(=O)N[C@H](Cc1ccc2ccccc2c1)C(=O)N[C@H](Cc1ccc(Cl)cc1)C(=O)N[C@H](Cc1cccnc1)C(=O)N[C@@H](CO)C(=O)N(C)[C@@H](Cc1ccc(O)cc1)C(=O)N[C@H](CC(N)=O)C(=O)N[C@@H](CC(C)C)C(=O)N[C@@H](CCCCNC(C)C)C(=O)N1CCC[C@H]1C(=O)N[C@H](C)C(N)=O` [Abarelix, abarelix] (Ac-[d2Nal][dPhe(4-Cl)][d3Pal]S[NMeY][dN]L[Lys(iPr)]P[dA]-NH2), the time to castration with sex steroids is 5 to 8 days.

On to `CCNC(=O)[C@@H]1CCCN1C(=O)[C@H](CCCN=C(N)N)NC(=O)[C@H](CC(C)C)NC(=O)[C@@H](Cc1c[nH]c2ccccc12)NC(=O)[C@H](Cc1ccc(O)cc1)NC(=O)[C@H](CO)NC(=O)[C@H](Cc1c[nH]c2ccccc12)NC(=O)[C@H](Cc1cnc[nH]1)NC(=O)[C@@H]1CCC(=O)N1` [Deslorelin], for which the “additional time to decrease circulating sex steroid levels versus surgical castration” value in experiment [1] was “about 3 weeks”. Besides, the “rate of regeneration post-cyclophosphamide treatment compared to surgical castration” value in experiment [1] (injected for four weeks) is “comparable rate of regeneration”. In addition, the “enhancing effects on thymic expansion and recovery of spleen and lymph node versus surgical castration” value in experiment [1] (post-cyclophosphamide) is recorded as “equivalent”.

B1: G-CSF: granulocyte colony stimulating factor, Neupogen (Amgen) (protein, UniProt P09919 31-207, looked up)
Granulocyte …: TPLGPASSLPQSFLLKCLEQVRKIQGDGAALQEKLVSECATYKLCHPEELVLLGHSLGIPWAPLSSCPSQALQLAGCLSQLHSGLFLYQGLLQALEGISPELGPTLDTLQLDVADFATTIWQQMEELGMAPALQPTQGAMPAFASAFQRRAGGVLVASHLQSFLEVSYRVLRHLAQP
modifications: filgrastim, N-terminal Met
Consider B1, for which the neutrophils entry in experiment [2] (other Phase I/II trials) is listed as “measurable increases in neutrophils”. Moreover, the “incidence of infection (febrile neutropenia, infection rates, in-patient hospitalization, antibiotic use)” value in experiment [2] (small cell lung cancer, 4-8 μg/kg/day s.c. days 4-17 after chemotherapy, placebo-controlled) is “clinically and statistically significant decrease”.

B2: Neulasta®: Amgen product given as single SC dose on day 2 of each chemotherapy cycle; called GM-CSF in the text (protein, UniProt P09919 31-207, looked up)
Granulocyte …: B1 Granulocyte …
modifications: pegfilgrastim: PEGylated, N-terminal Met
notes: called GM-CSF in the text
For the molecule B2, the “rates of febrile Neutropenia” value in experiment [2] (both studies) was 10-20%. Besides, in experiment [2] (metastatic breast cancer, administered day 2 of chemotherapy cycle, both studies), the “mean days of severe Neutropenia” value was “approximately 1.7 days”.
